Results from patent publication US20200002283A1, “PYRAZOLE DERIVATIVES HAVING ACTIVITY AGAINST PAIN” (priority 2016, published 2020).
Like-named read-outs stand apart in the source and are kept apart here.

Legend:
[1] = target: Human α2δ-1 subunit of Cav2.2 calcium channel (Homo sapiens, UniProt P54289); assay: Human α2δ-1 subunit of Cav2.2 calcium channel assay ([3H]-Gabapentin binding)
Method: Human α2δ-1 Subunit of Cav2.2 Calcium Channel Assay
Human α2δ-1 enriched membranes (2.5 μg) were incubated with 15 nM of radiolabeled [3H]-Gabapentin in assay buffer containing Hepes-KOH 10 mM, pH 7.4. NSB (non specific binding) was measured by adding 10 μM pregabalin. After 60 min incubation at 27° C., binding reaction was terminated by filtering through Multiscreen GF/C (Millipore) presoaked in 0.5% polyethyleneimine in Vacuum Manifold Station, followed by 3 washes with ice-cold filtration buffer containing 50 mM Tris-HCl, pH 7.4. Filter plates were dried at 60° C. for 1 hour and 30 μl of scintillation cocktail were added to each well before radioactivity reading. Readings were performed in a Trilux 1450 Microbeta radioactive counter (Perkin Elmer).

[2] = target: T1, human μ-opioid receptor (Homo sapiens, UniProt P35372); assay: Human μ-opioid receptor radioligand assay ([3H]-DAMGO); type: binding
T1 construct: expressed in transfected cells; host or cells: CHO-K1
Method: Human μ-Opioid Receptor Radioligand Assay
To investigate binding properties of test compounds to human μ-opioid receptor, transfected CHO-K1 cell membranes and [^3H]-DAMGO (Perkin Elmer, ES-542-C), as the radioligand, were used. The assay was carried out with 20 μg of membrane suspension, 1 nM of [^3H]-DAMGO in either absence or presence of either buffer or 10 μM Naloxone for total and non-specific binding, respectively. Binding buffer contained Tris-HCl 50 mM, MgCl2 5 mM at pH 7.4. Plates were incubated at 27° C. for 60 minutes. After the incubation period, the reaction mix was then transferred to MultiScreen HTS, FC plates (Millipore), filtered and plates were washed 3 times with ice-cold 10 mM Tris-HCL (pH 7.4). Filters were dried and counted at approximately 40% efficiency in a MicroBeta scintillation counter (Perkin-Elmer) using EcoScint liquid scintillation cocktail.

[3] = human α2δ-1 enriched membranes, 15 nM [3H]-Gabapentin, read-out: α2δ-1 binding
[4] = transfected CHO-K1 cell membranes, 1 nM [3H]-DAMGO, read-out: μ binding

T1 sequence (P35372 whole entry): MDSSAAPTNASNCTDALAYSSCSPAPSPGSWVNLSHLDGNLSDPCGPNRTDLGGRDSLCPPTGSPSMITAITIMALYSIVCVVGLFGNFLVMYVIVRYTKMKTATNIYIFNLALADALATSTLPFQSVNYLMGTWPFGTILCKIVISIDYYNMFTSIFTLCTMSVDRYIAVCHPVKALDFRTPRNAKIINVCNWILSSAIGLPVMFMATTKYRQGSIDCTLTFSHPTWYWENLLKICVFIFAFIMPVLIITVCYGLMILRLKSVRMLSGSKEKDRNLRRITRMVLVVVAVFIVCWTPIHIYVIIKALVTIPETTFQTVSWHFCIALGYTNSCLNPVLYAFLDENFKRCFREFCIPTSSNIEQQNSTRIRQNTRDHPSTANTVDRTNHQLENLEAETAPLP
Chain of Human α2δ-1 subunit of Cav2.2 calcium channel (P54289 25-1103): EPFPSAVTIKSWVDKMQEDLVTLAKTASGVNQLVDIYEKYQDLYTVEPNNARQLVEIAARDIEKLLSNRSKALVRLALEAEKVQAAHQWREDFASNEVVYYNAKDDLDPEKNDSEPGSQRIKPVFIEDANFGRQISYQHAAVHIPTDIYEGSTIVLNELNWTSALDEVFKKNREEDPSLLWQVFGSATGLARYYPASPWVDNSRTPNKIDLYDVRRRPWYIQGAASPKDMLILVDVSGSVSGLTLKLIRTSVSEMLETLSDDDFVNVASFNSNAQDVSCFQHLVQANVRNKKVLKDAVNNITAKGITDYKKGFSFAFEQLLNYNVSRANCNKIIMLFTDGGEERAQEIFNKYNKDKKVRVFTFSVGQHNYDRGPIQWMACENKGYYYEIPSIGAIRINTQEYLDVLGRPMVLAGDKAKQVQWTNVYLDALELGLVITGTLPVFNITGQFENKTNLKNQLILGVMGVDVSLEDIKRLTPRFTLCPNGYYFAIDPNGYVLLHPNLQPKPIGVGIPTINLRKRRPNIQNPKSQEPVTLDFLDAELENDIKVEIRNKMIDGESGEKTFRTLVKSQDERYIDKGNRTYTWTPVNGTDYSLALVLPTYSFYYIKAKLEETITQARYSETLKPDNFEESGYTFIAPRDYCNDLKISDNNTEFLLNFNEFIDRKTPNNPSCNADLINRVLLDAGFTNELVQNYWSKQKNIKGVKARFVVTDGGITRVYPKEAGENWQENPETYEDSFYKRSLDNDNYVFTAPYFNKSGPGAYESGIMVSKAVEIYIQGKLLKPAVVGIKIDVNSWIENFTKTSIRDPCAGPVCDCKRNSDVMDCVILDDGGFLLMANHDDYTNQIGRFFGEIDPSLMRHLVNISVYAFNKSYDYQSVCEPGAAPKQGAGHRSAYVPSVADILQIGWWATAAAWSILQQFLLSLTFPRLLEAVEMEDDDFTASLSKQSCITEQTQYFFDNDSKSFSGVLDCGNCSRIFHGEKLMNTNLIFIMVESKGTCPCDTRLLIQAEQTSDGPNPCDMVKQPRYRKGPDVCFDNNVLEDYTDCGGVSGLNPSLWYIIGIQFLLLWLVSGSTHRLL

Ki [1, 3] [nM]	Ki [2, 4] [nM]	Compound	Ki [1] [nM]	Ki [2] [nM]
3000 to 5000	> 500	NCc1cc(Cc2ccccc2)n(-c2cccc(O)c2)n1 [Example 36, 3-[3-(Aminomethyl)-5-benzyl-1H-pyrazol-1-yl]phenol]	–	–
–	–	COc1ccc(-n2nc(CN)cc2Cc2ccc(O)cc2)c(Cl)c1 [Example 37, 4-{[3-(Aminomethyl)-1-(2-chloro-4-methoxyphenyl)-1H-pyrazol-5-yl]methyl}phenol]	500 to 3000	< 100
–	–	NCc1cc(Cc2ccc(O)cc2)n(-c2ccc(Cl)cc2Cl)n1 [Example 38, 4-{[3-(Aminomethyl)-1-(2,4-dichlorophenyl)-1H-pyrazol-5-yl]methyl}phenol]	500 to 3000	< 100
500 to 3000	> 500	NCc1cc(Cc2ccc(O)cc2)n(-c2ccccc2Cl)n1 [Example 39, 4-{[3-(Aminomethyl)-1-(2-chlorophenyl)-1H-pyrazol-5-yl]methyl}phenol]	–	–
3000 to 5000	> 500	NCc1cc(Cc2ccc(O)cc2)n(-c2ccc(Cl)cc2)n1 [Example 40, 4-{[3-(Aminomethyl)-1-(4-chlorophenyl)-1H-pyrazol-5-yl]methyl}phenol]	–	–
–	–	NCc1cc(Cc2ccc(O)cc2)n(-c2ccc(O)cc2Cl)n1 [Example 41, 4-[3-(Aminomethyl)-5-(4-hydroxybenzyl)-1H-pyrazol-1-yl]-3-chlorophenol]	> 5000	< 100
–	–	NCc1cc(Cc2ccc(O)cc2)n(-c2ccc(F)cc2Cl)n1 [Example 42, 4-{[3-(Aminomethyl)-1-(2-chloro-4-fluorophenyl)-1H-pyrazol-5-yl]methyl}phenol]	500 to 3000	100 to 500
> 5000	> 500	NCc1cc(Cc2ccc(O)cc2)n(-c2ccccn2)n1 [Example 43, 4-{[3-(Aminomethyl)-1-(pyridin-2-yl)-1H-pyrazol-5-yl]methyl}phenol]	–	–
–	–	CC(C)Cn1nc(CN)cc1Cc1ccc(O)cc1 [Example 44, 4-{[3-(Aminomethyl)-1-isobutyl-1H-pyrazol-5-yl]methyl}phenol]	< 500	> 500
500 to 3000	> 500	NCc1cc(Cc2ccc(O)cc2)n(Cc2ccc(Cl)cc2)n1 [Example 45, 4-{[3-(Aminomethyl)-1-(4-chlorobenzyl)-1H-pyrazol-5-yl]methyl}phenol]	–	–
3000 to 5000	> 500	NCc1cc(Cc2ccc(O)cc2)n(Cc2ccccc2)n1 [Example 46, 4-{[3-(Aminomethyl)-1-benzyl-1H-pyrazol-5-yl]methyl}phenol]	–	–
500 to 3000	> 500	NCc1cc(Cc2ccc(O)cc2)n(Cc2ccccc2Cl)n1 [Example 47, 4-{[3-(Aminomethyl)-1-(2-chlorobenzyl)-1H-pyrazol-5-yl]methyl}phenol]	–	–
500 to 3000	> 500	NCc1cc(Cc2ccc(O)cc2)n(Cc2ccc(Cl)cc2Cl)n1 [Example 48]	–	–
> 5000	> 500	CC(c1ccccc1)n1nc(CN)cc1Cc1ccc(O)cc1 (stereo not drawn) [Example 49, 4-{[3-(Aminomethyl)-1-(1-phenylethyl)-1H-pyrazol-5-yl]methyl}phenol]	–	–
3000 to 5000	> 500	CCNCc1cc(Cc2ccc(O)cc2)n(CC(C)C)n1 [Example 50, 4-({3-[{Ethylamino)methyl]-1-isobutyl-1H-pyrazol-5-yl}methyl)phenol]	–	–
–	–	CC(N)c1cc(Cc2ccc(O)cc2)n(-c2ccc(Cl)cc2Cl)n1 (stereo not drawn) [Example 51, 4-{[3-(1-Aminoethyl)-1-(2,4-dichlorophenyl)-1H-pyrazol-5-yl]methyl}phenol]	< 500	< 100
–	–	CC(N)c1cc(Cc2ccc(O)c(F)c2)n(-c2ccc(Cl)cc2Cl)n1 (stereo not drawn) [Example 52, 4-{[3-(1-Aminoethyl)-1-(2,4-dichlorophenyl)-1H-pyrazol-5-yl]methyl}-2-fluorophenol]	< 500	< 100
–	–	CCCC(N)c1cc(Cc2ccc(O)c(F)c2)n(-c2ccc(Cl)cc2Cl)n1 (stereo not drawn) [Example 53, 4-{[3-(1-Aminobutyl)-1-(2,4-dichlorophenyl)-1H-pyrazol-5-yl]methyl}-2-fluorophenol]	< 500	< 100

Ki [1, 3] [nM]	Ki [2, 4] [nM]	Compound	Ki [1] [nM]	Ki [2] [nM]
–	–	CCC(N)c1cc(Cc2ccc(O)cc2)n(-c2ccc(Cl)cc2Cl)n1 (stereo not drawn) [Example 54, 4-{[3-(1-Aminopropyl)-1-(2,4-dichlorophenyl)-1H-pyrazol-5-yl]methyl}phenol]	500 to 3000	100 to 500
500 to 3000	> 500	CC(N)c1cc(C(C)(C)c2ccc(O)cc2)n(-c2ccc(Cl)cc2Cl)n1 (stereo not drawn) [Example 55, 4-{2-[3-(1-Aminoethyl)-1-(2,4-dichlorophenyl)-1H-pyrazol-5-yl]propan-2-yl]phenol]	–	–
–	–	CC(C)(N)c1cc(Cc2ccc(O)c(F)c2)n(-c2ccc(Cl)cc2Cl)n1 [Example 56, 4-{[3-(2-Aminopropan-2-yl)-1-(2,4-dichlorophenyl)-1H-pyrazol-5-yl]methyl}-2-fluorophenol]	3000 to 5000	< 100
–	–	CC(C)(N)c1cc(Cc2ccc(O)cc2)n(-c2ccc(Cl)cc2Cl)n1 [Example 57, 4-{[3-(2-Aminopropan-2-yl)-1-(2,4-dichlorophenyl)-1H-pyrazol-5-yl]methyl}phenol]	3000 to 5000	< 100
–	–	NCCc1cc(Cc2ccc(O)cc2)n(-c2ccc(Cl)cc2Cl)n1 [Example 58, 4-{[3-(2-Aminoethyl)-1-(2,4-dichlorophenyl)-1H-pyrazol-5-yl]methyl}phenol]	3000 to 5000	< 100
–	–	CC(CN)c1cc(Cc2ccc(O)cc2)n(-c2ccc(Cl)cc2Cl)n1 (stereo not drawn) [Example 59, 4-{[3-(1-Aminopropan-2-yl)-1-(2,4-dichlorophenyl)-1H-pyrazol-5-yl]methyl}phenol]	> 5000	< 100
–	–	CCC(CN)c1cc(Cc2ccc(O)cc2)n(-c2ccc(Cl)cc2Cl)n1 (stereo not drawn) [Example 60, 4-{[3-(1-Aminobutan-2-yl)-1-(2,4-dichlorophenyl)-1H-pyrazol-5-yl]methyl}phenol]	> 5000	< 100
–	–	C[C@H](N)c1cc(Cc2ccc(O)cc2)n(-c2ccc(Cl)cc2Cl)n1 [Example 61, (S)-4-{[3-(1-Aminoethyl)-1-(2,4-dichlorophenyl)-1H-pyrazol-5-yl]methyl}phenol]	< 500	< 100
–	–	C[C@@H](N)c1cc(Cc2ccc(O)cc2)n(-c2ccc(Cl)cc2Cl)n1 [Example 62, (R)-4-{[3-(1-Aminoethyl)-1-(2,4-dichlorophenyl)-1H-pyrazol-5-yl]methyl}phenol]	500 to 3000	< 100
–	–	CC(N)c1cc(Cc2ccc(O)cc2)n(C2CCCCC2)n1 (stereo not drawn) [Example 65, 4-{[3-(1-Aminoethyl)-1-cyclohexyl-1H-pyrazol-5-yl]methyl}phenol]	< 500	> 500
> 5000	> 500	CC(N)c1cc(Cc2ccc(O)cc2)n(C2CCOCC2)n1 (stereo not drawn) [Example 66, 4-{[3-(1-Aminoethyl)-1-(tetrahydro-2H-pyran-4-yl)-1H-pyrazol-5-yl]methyl}phenol]	–	–
> 5000	> 500	CC(N)c1cc(Cc2ccc(O)cc2)n(CCc2ccccc2)n1 (stereo not drawn) [Example 67, 4-{[3-(1-Aminoethyl)-1-phenethyl-1H-pyrazol-5-yl]methyl}phenol]	–	–
–	–	CC(N)Cc1cc(Cc2ccc(O)cc2)n(-c2ccc(Cl)cc2Cl)n1 (stereo not drawn) [Example 68, 4-{[3-(2-Aminopropyl)-1-(2,4-dichlorophenyl)-1H-pyrazol-5-yl]methyl}phenol]	> 5000	< 100
–	–	COc1ccc(-n2nc([C@@H](C)N)cc2Cc2ccc(O)cc2)c(Cl)c1 [Example 69, (R)-4-{[3-(1-Aminoethyl)-1-(2-chloro-4-methoxyphenyl)-1H-pyrazol-5-yl]methyl}phenol]	> 5000	100 to 500
–	–	COc1ccc(-n2nc([C@H](C)N)cc2Cc2ccc(O)cc2)c(Cl)c1 [Example 70, (S)-4-{[3-(1-Aminoethyl)-1-(2-chloro-4-methoxyphenyl)-1H-pyrazol-5-yl]methyl}phenol]	< 500	100 to 500
–	–	NC(CO)c1cc(Cc2ccc(O)cc2)n(-c2ccc(Cl)cc2Cl)n1 (stereo not drawn) [Example 71, 4-{[3-(1-Amino-2-hydroxyethyl)-1-(2,4-dichlorophenyl)-1H-pyrazol-5-yl]methyl}phenol]	> 5000	100 to 500
–	–	NC(CN1CCCCC1)c1cc(Cc2ccc(O)cc2)n(-c2ccc(Cl)cc2Cl)n1 (stereo not drawn) [Example 72, 4-({3-[1-Amino-2-(piperidin-1-yl)ethyl]-1-(2,4-dichlorophenyl)-1H-pyrazol-5-yl}methyl)phenol]	> 5000	100 to 500
> 5000	> 500	NC(CN1CCOCC1)c1cc(Cc2ccc(O)cc2)n(-c2ccc(Cl)cc2Cl)n1 (stereo not drawn) [Example 73, 4-{[3-(1-Amino-2-morpholinoethyl)-1-(2,4-dichlorophenyl)-1H-pyrazol-5-yl]methyl}phenol]	–	–
